These results are taken from patent publication US20240050434A1, “HORMAD1 THERAPEUTICS” (Royal Cancer Hospital, priority 2020, published 2024).

“Also recorded” adds a separate entry of the source.

For data set [1] the following is noted: Mortlock et al., 2007; cited from earlier work.
Data set [2] concerns RPE1 cells expressing a doxycycline-inducible HORMAD1 construct. Kind of data set: Clonogenic survival assay (SRB) in RPE1 cells with doxycycline-inducible HORMAD1. The data set is classed as cell-based. As to conditions: increasing doses, 7-14 days, normalised to vehicle. Here is the method: Cell confluence was analysed every 6 hours for 10 days, using incucyte software. Data are from 3 biological replicates and analysed using a two-way ANOVA. […] RPE1 cells expressing a doxycycline-inducible HORMAD1 expression construct were exposed to doxycycline or vehicle (H2O) and were exposed to 20 nM of the Aurora B inhibitor, AZD1152-HQPA. Cell confluence was analysed every 6 hours for 10 days, using incucyte software. Data are from 3 biological replicates and analysed using a two-way ANOVA. […] 7-10 days post drugging, cells were fixed, stained with SRB, and colonies were counted using Cell Profiler. […] 10 days post drugging, cells were fixed, stained with SRB, and colonies were counted using Cell Profiler. […] RPE1 cells expressing a doxycycline-inducible HORMAD1 expression construct were exposed to doxycycline or vehicle (H2O) and to increasing doses of the Aurora B inhibitor, AZD1152-HQPA. 7-10 days post drugging, cells were fixed, stained with SRB, and colonies were counted using Cell Profiler. […] SUM159 cells expressing a doxycycline-inducible HORMAD1 expression construct were exposed to doxycycline or vehicle (H2O) and to increasing doses of the Aurora B inhibitor, AZD1152-HQPA. 10 days post drugging, cells were fixed, stained with SRB, and colonies were counted using Cell Profiler.
RPE1 cells were reverse transfected with BUB1 or control siRNA particles for 3 days. Cell lysates were collected, and analysed by western blotting using anti-BUB1 and anti-β-ACTIN antibodies. […] RPE1 cells expressing a doxycycline-inducible HORMAD1 expression construct were exposed to doxycycline or vehicle, and were reverse transfected with BUB1 or control siRNA particles. 5 days post transfection, cellular viability was estimated using cell titer glo reagent and surviving fractions were calculated relative to DMSO treated cells. […] Statistical significance estimated using a one-way ANOVA with Sidak's correction. C. Western blot illustrating expression of HORMAD1 in wild-type RPE1 cells and RPE1 cells depleted of BUB1 using CRISPR. WT and BUB1 depleted RPE1 cells expressing a doxycycline-inducible HORMAD1 expression construct, were exposed to doxycycline or vehicle for 3 days. Cell lysates were collected, and analysed by SDS-PAGE and western blotting using anti-HORMAD1, anti-H3 and anti-BUB1 antibodies. […] WT and BUB1 depleted RPE1 cells expressing a doxycycline-inducible HORMAD1 expression construct were exposed to doxycycline or vehicle. 7-10 days post doxycycline induction, cells were fixed, stained with SRB, and cellular viability was estimated using SRB absorbance readings. […] Statistical significance estimated using a one-way ANOVA with Sidak's correction. […] RPE1 expressing a doxycycline-inducible HORMAD1 expression construct, were exposed to doxycycline or vehicle. […] Cells were fixed, stained with SRB, and cellular viability was estimated using SRB absorbance readings. […] Cells were imaged every 4 hours, and confluence was continually measured using incucyte software. Growth curves were plotted, based on confluence. Data represent 3 biological replicas. […] Patient-derived organoids models were grown in culture and cell lysates collected and analysed using SDS-PAGE and western blotting using anti-HORMAD1 and anti-β-ACTIN antibodies. […] Cellular viability was estimated using cell titer glo reagent and surviving fractions were calculated relative to DMSO treated cells. […] Left, dose response curves for each organoid.

Data set [3] has the same test system. In words: Cell viability by cell titre glo in RPE1 cells with doxycycline-inducible HORMAD1. It is filed as cell-based. Conditions: increasing doses, 5 days post drug, cell titre glo, normalised to vehicle. Here is the method:
RPE1 cells expressing a doxycycline-inducible HORMAD1 construct were treated with doxycycline or vehicle. […] Six days post HORMAD1 induction and 5 days post drug, cell viability was estimated using cell titre glo reagent. Surviving fractions were calculated (normalised to vehicle treated cells).
RPE1 and SUM159 cells expressing a doxycycline-inducible HORMAD1 construct were treated with doxycycline or vehicle. […] Surviving fractions were calculated (normalised to vehicle treated cells). (FIGS. 7a, b and 14c and d). Data from 3 replicas was analysed using 2-way ANOVA. 5 days post drugging, cell viability was estimated using cell titre glo reagent. Surviving fractions were calculated (normalised to vehicle treated cells). Data from 4 replicas was analysed using 2-way ANOVA.
RPE1 cells expressing a doxycycline-inducible HORMAD1 construct were treated with doxycycline or vehicle. […] 5 days post drugging, cell viability was estimated using cell titre glo reagent. Surviving fractions were calculated (normalised to vehicle treated cells).
RPE1 cells expressing a doxycycline-inducible HORMAD1 construct were treated with doxycycline or vehicle in order to induce HORMAD1 expression. […] Using cell titre glo as a measure of cell viability, surviving fractions were calculated (normalised to eribulin alone).
RPE1 cells expressing a doxycycline-inducible HORMAD1 construct were treated with doxycycline or vehicle. […] Using cell titre glo as a measure of cell viability, surviving fractions were calculated (normalised to olaparib alone).

The next data set addresses T1, AURORA A kinase (Homo sapiens, UniProt O14965).
T1 sequence (O14965 1-403): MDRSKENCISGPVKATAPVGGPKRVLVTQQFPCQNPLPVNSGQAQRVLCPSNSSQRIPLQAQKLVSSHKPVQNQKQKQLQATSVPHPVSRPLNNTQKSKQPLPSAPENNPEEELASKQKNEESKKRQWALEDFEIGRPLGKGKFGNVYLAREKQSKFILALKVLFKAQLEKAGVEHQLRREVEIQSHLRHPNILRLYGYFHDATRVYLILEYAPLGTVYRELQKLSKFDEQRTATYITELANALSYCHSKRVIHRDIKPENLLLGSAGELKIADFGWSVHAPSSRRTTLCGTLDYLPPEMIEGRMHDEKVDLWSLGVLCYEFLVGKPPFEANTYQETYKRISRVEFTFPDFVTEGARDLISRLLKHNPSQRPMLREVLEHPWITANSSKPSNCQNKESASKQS
As to conditions: Shimomura et al., 2010; cited from earlier work.

The subject of data set [4] is H1299 cells expressing shRNA targeting HORMAD1. As to conditions: 300 nM nocodazole 6 hours, then 200 nM reversine. Here is the method:
A. Diagram of experimental outline. Cells were exposed to doxycycline for 3 days, arrested in mitosis using 300 nM nocodazole or 100 nM Paclitaxel. Mitotic cells were filmed every 4 minutes for 1200 minutes, and the time cells remained arrested in mitosis before exiting via mitotic slippage was assessed. […] RPE1 cells expressing a doxycycline-inducible HORMAD1 cDNA expression construct were exposed to doxycycline or vehicle (H2O) for three days at which point cells were exposed to 300 nM nocodazole and filmed every 4 minutes using time-lapse microscopy. The time individual cells remained arrested in mitosis was quantified and presented as the % of cells arrested in mitosis at each time point. Data reflects a total of 125 cells from 3 biological repeats and was analysed using Mantel-Cox test. C. […] The time individual cells remained arrested in mitosis was quantified and presented as the % of cells arrested in mitosis at each time point. Data reflects a total of 125 cells from 3 biological repeats and was analysed using Mantel-Cox test. […] H1299 cells expressing two individual, doxycycline-inducible, shRNA particles targeting HORMAD1 as well as a non-targeting control were grown for three days in the presence of doxycycline at which point cell lysates were generated and analysed by SDS-PAGE and western blotting using anti-HORMAD1 and anti-β-ACTIN antibodies. […]

Data set [5] concerns RPE1 cells expressing a doxycycline-inducible HORMAD1 expression construct. Kind of data set: Mitotic slippage by time-lapse microscopy in nocodazole-arrested RPE1 cells. It is filed as cell-based. Here is the method:
A. Diagram of experimental outline. Cells were exposed to doxycycline for 3 days, arrested in mitosis using 300 nM nocodazole or 100 nM Paclitaxel. Mitotic cells were filmed every 4 minutes for 1200 minutes, and the time cells remained arrested in mitosis before exiting via mitotic slippage was assessed. […] RPE1 cells expressing a doxycycline-inducible HORMAD1 cDNA expression construct were exposed to doxycycline or vehicle (H2O) for three days at which point cells were exposed to 300 nM nocodazole and filmed every 4 minutes using time-lapse microscopy. The time individual cells remained arrested in mitosis was quantified and presented as the % of cells arrested in mitosis at each time point. Data reflects a total of 125 cells from 3 biological repeats and was analysed using Mantel-Cox test. C. […] The time individual cells remained arrested in mitosis was quantified and presented as the % of cells arrested in mitosis at each time point. Data reflects a total of 125 cells from 3 biological repeats and was analysed using Mantel-Cox test. […] H1299 cells expressing two individual, doxycycline-inducible, shRNA particles targeting HORMAD1 as well as a non-targeting control were grown for three days in the presence of doxycycline at which point cell lysates were generated and analysed by SDS-PAGE and western blotting using anti-HORMAD1 and anti-β-ACTIN antibodies. […] The time individual cells remained arrested in mitosis was quantified and presented as the % of cells arrested in mitosis at each time point. Data reflects a total of 90 cells from 3 biological repeats and was analysed using Mantel-Cox test with Bonferonni correction. […] Mitotic cells were filmed every 2 minutes for 400 minutes, and the time taken before cells exited mitosis via mitotic slippage was assessed. […] The time individual cells remained arrested in mitosis was quantified and presented as the % of cells arrested in mitosis at each time point. […] The time individual cells remained arrested in mitosis was quantified and presented as the % of cells arrested in mitosis at each time point. […]

Data set [6] relates to MCF10A cells expressing a doxycycline-inducible HORMAD1 cDNA expression construct. Conditions: 300 nM nocodazole 6 hours, then 100 nM reversine. As for the experimental part: (§1) HeLa cells were transfected with two individual siRNA particles targeting HORMAD1 as well as a non-targeting control, grown for three days at which point cell lysates were generated and analysed SDS-PAGE and western blotting using anti-HORMAD1 and anti-H3 antibodies. […] HeLa cells were transfected with two individual siRNA particles targeting HORMAD1 as well as a non-targeting control, grown for three days at which point cells were exposed to 300 nM nocodazole and filmed every 4 minutes using time-lapse microscopy. The time individual cells remained arrested in mitosis was quantified and presented as the % of cells arrested in mitosis at each time point. Data reflects a total of 125 cells from 3 biological repeats and was analysed using Mantel-Cox test with Bonferonni correction. C. […] MDA-MB-436 cells expressing two individual, doxycycline-inducible, shRNA particles targeting HORMAD1 as well as a non-targeting control were grown for three days in the presence of doxycycline at which point cell lysates were generated and analysed SDS-PAGE and western blotting using anti-HORMAD1 and anti-6-ACTIN antibodies. […] MDA-MB-436 cells expressing two individual, doxycycline-inducible, shRNA particles targeting HORMAD1 as well as a non-targeting control were grown for three days in the presence of doxycycline at which point cells were exposed to 300 nM nocodazole and filmed every 4 minutes using time-lapse microscopy. The time individual cells remained arrested in mitosis was quantified and presented as the % of cells arrested in mitosis at each time point. Data reflects a total of 50 cells from 2 biological repeats and was analysed using Mantel-Cox test with Bonferonni correction. […] The time individual cells remained arrested in mitosis was quantified and presented as the % of cells arrested in mitosis at each time point. […] The time individual cells remained arrested in mitosis was quantified and presented as the % of cells arrested in mitosis at each time point.

For data set [7], the system named is HeLa cells transfected with siRNA targeting HORMAD1. Conditions: 300 nM nocodazole 6 hours, then 100 nM reversine. As for the experimental part: as §1
Data set [8] concerns SUM159 cells induced to express HORMAD1. As to conditions: 300 nM nocodazole 6 hours, then 100 nM reversine. As for the experimental part:
as §1

Data set [9] relates to MDA-MB-436 cells expressing shRNA targeting HORMAD1. As to conditions: 300 nM nocodazole 6 hours, then 200 nM reversine. Here is the method:
as §1

For the molecule `CCN(CCCOc1ccc2c(Nc3cc(CC(=O)Nc4cccc(F)c4)n[nH]3)ncnc2c1)CCOP(=O)(O)O` [AZD1152], the “conversion of prodrug in plasma” value in [1] is given as “rapidly converted into AZD1152-HQPA”.
`O=C(O)[C@]1(Cc2cccc(Nc3nccs3)n2)CC[C@@H](Oc2cccc(Cl)c2F)CC1` [MK-5108]: the “clonogenic survival / sensitivity of HORMAD1 expressing versus HORMAD1-negative RPE1 cells” value in data set [2] is given as “confirmed these findings; also recorded: increased Aurora inhibitor sensitivity”. For the same molecule, the “growth inhibition (surviving fraction) of HORMAD1 expressing versus HORMAD1-negative RPE1 cells” value in [3] was “more effectively inhibited”. For the same molecule, at AURORA A kinase, the “concentrations inhibiting AURORA A kinase activity” value is given as “sub-nanomolar”; the “specificity over AURORA B and C” value is ~200 fold.
Turning to `c1nc2nc(Nc3ccc(N4CCOCC4)cc3)nc(NC3CCCCC3)c2[nH]1` [reversine, 2-(4-morpholinoanilino)-6-cyclohexylaminopurine], the “mitotic slippage in H1299 cells depleted of HORMAD1” value in data set [4] was “delayed mitotic slippage”. Also, in [5] (300 nM nocodazole 6 hours, then 100 nM reversine), the “time before slippage in RPE1 cells expressing only the HORMA domain” value is given as “reduced”. For the same molecule, the “mitotic slippage / mitotic exit in HORMAD1 induced RPE1 cells” value in [5] (300 nM nocodazole arrest, then 100-200 nM reversine, 50 nM BOS172722 or AZD1152-HQPA) is recorded as “rapid mitotic exit; also recorded: premature mitotic slippage”. In addition, the “mitotic slippage in MCF10A cells induced to express HORMAD1” value in data set [6] is listed as “premature mitotic slippage”. Moreover, the “mitotic slippage in HeLa cells depleted of HORMAD1” value in data set [7] is “delayed mitotic slippage”. In addition, the “mitotic slippage in SUM159 cells induced to express HORMAD1” value in [8] was “premature mitotic slippage”. Also, the “mitotic slippage in MDA-MB-436 cells depleted of HORMAD1” value in [9] is “delayed mitotic slippage”.
For AZ-3146, the “clonogenic survival / sensitivity of HORMAD1 expressing versus HORMAD1-negative RPE1 cells” value in [2] is “confirmed these findings; also recorded: increased MPSI inhibitor sensitivity”.
